Data published in ChEMBL document CHEMBL1158471, “Flaviviral protease inhibitors identified by fragment-based library docking into a structure generated by molecular dynamics” (J Med Chem, 2009).
Where a SMILES comes first, the peptide text is derived from it. [ ]: non-standard residue; d: D form. The star is where a group is joined. Nle = CCCC[C@H](N)C(=O)O; Bz = O=C(c1ccccc1)*

Columns and labels:
Genome polyprotein [1] = target: T1, Genome polyprotein (West Nile virus, UniProt P06935); experiment: Binding affinity to WNV NS2B(K96A)-NS3 protease measured as change of 15N chemical shift of Val100 by NMR spectroscopy
Genome polyprotein [2] = target: T1, Genome polyprotein; experiment: Inhibition of WNV NS2B-NS3 protease by enzymatic assay
Genome polyprotein [3] = target: T1, Genome polyprotein; experiment: Binding affinity to WNV NS2B(K96A)-NS3 protease measured as change of 15N chemical shift of Ala36 by NMR spectroscopy
Genome polyprotein [4] = target: T1, Genome polyprotein; experiment: Inhibition of WNV NS2B-NS3 protease by tryptophan fluorescence assay
Genome polyprotein [5] = target: T1, Genome polyprotein; experiment: Binding affinity to WNV NS2B(K96A)-NS3 protease measured as change of 15N chemical shift of Ser137 by NMR spectroscopy
Genome polyprotein [6] = target: T1, Genome polyprotein; experiment: Binding affinity to WNV NS2B(K96A)-NS3 protease measured as change of 1H chemical shift of Glu101 by NMR spectroscopy
Genome polyprotein [7] = target: T1, Genome polyprotein; experiment: Inhibition of WNV NS2B-NS3 protease
Genome polyprotein [8] = target: T1, Genome polyprotein; experiment: Binding affinity to WNV NS2B-NS3 protease measured as change of 1H chemical shift of Thr52 and Glu101 by NMR spectroscopy

For `N=C(N)c1cccc(NC(=O)Nc2cccc(C(=N)N)c2)c1` [AMICARBALIDE], the Kd (Genome polyprotein [1]) was 90 µM, the IC50 (Genome polyprotein [2]) was 2.8 µM and the Kd (Genome polyprotein [3]) was 90 µM. The Kd (Genome polyprotein [4]) was 15 µM, the Kd (Genome polyprotein [5]) was 90 µM and the Kd (Genome polyprotein [6]) was 70 µM.

With `CCCC[C@H](NC(=O)c1ccccc1)C(=O)N[C@@H](CCCCN)C(=O)N[C@@H](CCCNC(=N)N)C(=O)N[C@H](C=O)CCCNC(=N)N` (Bz-[Nle]KRR-aldehyde) the IC50 (Genome polyprotein [7]) was 4.1 µM.

For `Cc1ccc(C(NN=C(N)N)[PH](=O)O)cc1` (stereo not given), the Ki (Genome polyprotein [7]) was 13 µM.

With `CC1CNC(c2ccc(Nc3nnc(Nc4ccc(C5=NC(C)CN5)cc4)c4ccccc34)cc2)=N1` (stereo not given) the IC50 (Genome polyprotein [7]) was 24.5 µM.

For `NC(N)=N/N=C\c1ccc(/C=N\N=C(N)N)cc1`, the Ki (Genome polyprotein [7]) was 35 µM.

In the case of `c1ccc2c(Nc3ccc4c(c3)CNCC4)nnc(Nc3ccc(C4=NCCN4)cc3)c2c1`, the IC50 (Genome polyprotein [7]) is reported as 5.2 µM.

With `Cc1cc(CSC(=N)N)c(C)cc1CSC(=N)N` the Kd (Genome polyprotein [8]) was 40 µM.

In the case of `NCc1ccc(Nc2nnc(Nc3ccc(C4=NCCN4)cc3)c3ccccc23)cc1`, the IC50 (Genome polyprotein [7]) is reported as 10.6 µM.

`N=C(N)Nc1ccc(C(=O)Oc2ccc([N+](=O)[O-])cc2)cc1` gave an IC50 (Genome polyprotein [2]) of 34.2 µM and a Kd (Genome polyprotein [4]) of 16 µM.
